Data reported in US11299518B2, “Fusion respiratory syncytial virus inhibitors and use thereof” (priority 2016, dated 2022).
Where two headings read alike, the source gives them in different places. Bridge positions count the residues as written; N and C are the ends. Square brackets hold non-standard residues; d marks the D form. Peptide text beside a SMILES is read from it. R8 = C=CCCCCCC[C@@](C)(N)C(=O)O; R5 = C=CCCC[C@@](C)(N)C(=O)O; S5 = C=CCCC[C@](C)(N)C(=O)O

What was measured:
[1] = CD spectroscopy, percentage of helicity; assay type: physicochemical; conditions: CD at 222 nm, 10 mM phosphate buffer pH 7.5, 50 μM peptide, 25° C.
Method: The secondary structure of the peptides was then characterized by circular dichroism (DC) as described below.
The circular dichroism spectra were acquired on a Jasco J-810 and on a Chirascan spectropolarimeter. The samples were prepared in 10 mM phosphate buffer, pH 7.5, at a peptide concentration of 50 μM. Data were recorded at 25° C. by stepscan from 180 nm to 260 nm in a 0.1 cm pathlength quartz cell using 0.2 nm wavelength increments, 1 nm bandwidth and a response time of 0.5 sec. Each spectrum was an average of three measurements and was subtracted from buffer baseline. The data were converted to per residue molar ellipticity units [θ] (deg·cm2·dmol−1·residue−1) and smoothed using the Igor software. The percentage of helicity was calculated as it follows:
[formula] whereby CD222=molar ellipticity at 222 nm in [mdeg], N=number of amino acids in the peptide and C=peptide molar concentration [mol/l].

[2] = tested on: 5HB, a recombinant 5 helix bundle protein containing 3 HR1 domains covalently attached to 2 HR2 domains; conditions: 50 nM 5HB, 2 nM FITC-T108
Method: The fluorescence polarization assay was performed in 384-well plates using a Spectramax Paradigm (Molecular devices), using an excitation and emission wavelength of 485 nm and 535 nm, respectively. The acquisition time was of 700 ms and the read height was of 1 mm.

[3] = circular dichroism; conditions: 10 mM phosphate; pH 7.5; 25 °C; 50 uM
[4] = tested on: RSV; conditions: DeVincenzo et al., 2014; cited from earlier work
[5] = tested on: RSV; conditions: Lambert et al., 1996; read-out: EC50 reported previously; cited from earlier work
[6] = molecular target: T1, chymotrypsin (Bos taurus, UniProt P00766); experiment: Proteolytic stability assay, chymotrypsin; assay type: in vitro ADME; conditions: chymotrypsin (isolated protease), pH 8, b240; read-out: half-life against chymotrypsin (converted)
T1 construct: purchased Thermo Fisher Scientific
Method: (§1) The compounds according to the invention are tested for their stability in a proteolytic stability assay as described below which is an important parameter to assess for the development of peptide therapeutics. Peptides of the invention 4bb, 4ca, 4a and their unstapled comparative peptide 4, as well as both SAH-RSVFBD isomers were treated with chymotrypsin and trypsin, and analysed by LC/MS to quantify the reaction products over time.
(§2) In vitro proteolytic degradation was measured via LC-MS using an Agilent Infinity 1280 UHPLC system coupled to an Agilent quadruple-time-of-flight (QTOF) 6530 with an Agilent Jet Stream electrospray ionisation (AJS ESI) source (all Agilent Technologies, Waldbronn, Germany). 5 μl of digested sample were injected onto a C18 column (Zorbax Eclipse Plus RRHD, 1.8 μm, 2.1*100 mm, Agilent Technologies, Waldbronn, Germany) equilibrated with solvent A and eluted with a flow rate of 0.4 ml/min over a 5-95% gradient of solvent B in 5 minutes, followed by 1.5 minutes at 95% and 0.5 minutes post-time where solvent A was 95% water, 5% acetonitrile with 0.2% formic acid and solvent B was 5% water, 95% acetonitrile with 0.2% formic acid. The AJS ESI source was operated with a capillary voltage of 4000V and a nozzle voltage of 600V with a drying gas temperature of 325° C. and flow rate of 10 l/min, nebulising gas pressure of 20 psi, and a sheath gas temperature of 300° C. and flow rate of 11l/min. Mass spectra were acquired in the positive ion mode from 100-3200 m/z at a rate of 1 scan per second in extended dynamic range (2 GHz) mode. The fragmentor, skimmer and octopole Radio Frequency voltages were set to 200, 60 and 750 V respectively. Data were acquired and analysed with Agilent MassHunter Workstation (version B.05).
(§3) Peptide digestion was performed as it follows: 10 μl of peptide at 0.29 mM in 50/50 acetonitrile/water were dissolved in 990 μl 100 mM Tris-HCl, pH 8.0 with 10 mM CaCl2. Following measurement of the undigested (to) sample, 10 μl of chymotrypsin at 50 μg/ml in 100 mM Tris-HCl, pH 8.0 with 10 mM CaCl2 were added and the sample was vortexed and placed immediately in the autosampler, set to 25° C. Trypsin digestion was performed as with chymotrypsin except that the buffer was in 50 mM Tris-HCl, pH8. Chymotrypsin and trypsin were purchased from Thermo Fisher Scientific.
(§4) The level of intact peptide was quantified by serial injection over time. Integration of the intact peptide compound chromatogram was performed using the Agilent Molecular Feature Extraction (MFE) algorithm. A plot of the intact peptide MFE peak area over time gave an exponential decay curve, from which the half-life was determined using MatLab […].

[7] = tested on: trypsin; experiment: Proteolytic stability assay, trypsin; assay type: in vitro ADME; conditions: trypsin (isolated protease), pH 8, b240; read-out: half-life against trypsin (converted)
Method: as §1, §2, §3, §4

[8] = tested on: rHRSV-Luc; experiment: In vivo rHRSV-Luc infection of mice, lung histological analysis; parameters: species or system BALB/c mice; conditions: intranasal peptide, day 7 pi
Method: The efficacy of peptides of the invention is tested in the following model of rHRSV infection.
Female BALB/c mice around 8 weeks of age are purchased. Mice are bred in a pathogen-free animal facility. For infection experiments, mice will be housed in cages inside stainless steel isolation cabinets that are ventilated under negative pressure with high-efficiency particulate air-filtered air. Female BALB/c mice (n=5 per group) are anesthetized by a mixture of ketamine and xylazine (1 and 0.2 mg per mouse, respectively) and infected by intranasal inoculation with 50 μl of PBS containing 6.10^4 p.f.u. of rHRSV-Luc (Luc-encoding virus that enables direct visualization of RSV replication in living mice). Peptides of the invention are administered intranasally to the mice infected or uninfected with RSV-Luc, on day 0, 2 and 4 post-infection. Body weight and temperature is monitored at days 3-10. In vivo imaging is performed each two days on anesthetized mice. At day 8, mice are killed and the safety of the treatment is investigated by a complete toxicopathological evaluation of treated mice (histologic analysis of lungs with sections of each lobe, turbinates, heart, spleen, liver, kidneys).
At day 7 pi, a time corresponding to the end of the infection in mice, the animals were sacrificed and the lungs were collected in order to perform a histological analysis. […]

[9] = tested on: RSV-mCherry; assay type: cell-based, HRSV
Method: The inhibitory activity of the peptides of the invention was assessed in HEp-2 cells as described below:
A mCherry-expressing virus recently developed (Rameix-Welti et al., 2014, Nat. Commun., 5:5104) was used to avoid the cumbersome manipulations required with the GFP-expressing virus.
HEp-2 cells were seeded at 5×10^4 cells per well in 96 wells plate the day before the infection. Peptides were 2-fold serially diluted in DMSO (11 dilutions), then further diluted in MEM medium and pre-incubated for 15-20 minutes with 0.2 MOI of RSV-mCherry (Rameix-Welti et al., 2014, supra). Following the washing of Hep-2 cells with MEM without phenol red medium, the cells were incubated with the virus/peptide mixtures for a period of 1 h30-2 h. The cells were washed and further incubated in MEM media containing fetal bovine serum and the same concentration of peptide that was used during the infection step. Plates were incubated 48 h at 37° C. and the mCherry fluorescence was measured using a spectrofluorometer (Tecan infinite M200PRO) with excitation and emission wavelengths of 580 and 620 nm, respectively (expressed in relative fluorescence units RFU). Non-infected HEp-2 cells were used as standards for fluorescence background levels. Each experiment was performed in duplicate and repeated at least twice.

[10] = tested on: recombinant green fluorescent protein (GFP)-expressing RSV virus (strain A2); experiment: HRSV-eGFP inhibition assay (cellular viral fusion assay, A549 cells, flow cytometry); assay type: cell-based
Method: The inhibitory activity of the peptides of the invention was assessed in a cellular viral fusion assay as compared to comparative peptides as follows. A549 cells were infected with a recombinant green fluorescent protein (GFP)-expressing RSV virus (strain A2) obtained as described below and in Hallak et al., 2000, Virology, 271:264-275, and the inhibitory activity of the peptides was quantified by flow cytometry.
Following rapid thawing of the frozen eGFP encoding RSV virus at […], the virus was vortexed for 2 min, and pipetted up and down to break aggregates. Serial 4-fold dilutions of inhibitors were prepared in glass tubes and mixed with a volume of virus required to achieve approximately 50% of infection in 200 μl of media containing 2% of FCS. The resulting mixture was added to 24-well plates containing A549 cells. Cells were incubated for 2 hours at 37° C., the media was replaced, and cells were incubated for an additional 24 hours. Cells were treated with 300 μl of trypsin for 10 min at 37° C., and the detached cells were diluted in 1 ml of culture medium. Following centrifugation at 1′700 rpm, the pellet was resuspended in 300 μl of PBS+1% SBF (V/V) and GFP positive cells were counted by FACS analysis.

CC[C@H](C)[C@H](NC(=O)[C@H](CCCCN)NC(=O)[C@H](CCC(=O)O)NC(C)=O)C(=O)N[C@@H](CC(N)=O)C(=O)N[C@@H](CCC(N)=O)C(=O)N[C@@H](CO)C(=O)N[C@@H](CC(C)C)C(=O)N[C@]1(C)CCCCCCC=CCCC[C@@](C)(C(=O)N[C@@H](CC(C)C)C(=O)N[C@@H](CC(C)C)C(=O)N[C@@H](Cc2c[nH]cn2)C(=O)N[C@@H](CC(N)=O)C(=O)N[C@H](C(N)=O)C(C)C)NC(=O)[C@H](CC(=O)O)NC(=O)[C@H](CO)NC(=O)[C@H](CCCCN)NC(=O)[C@H](CCCNC(=N)N)NC(=O)[C@H]([C@@H](C)CC)NC(=O)[C@H](Cc2ccccc2)NC1=O [Peptide 4e, EKINQSL 8504 FIRKSD X511 LLHNV, reference compound] (Ac-EKINQSL[R8]FIRKSD[S5]LLHNV-NH2; staple 8-15)
% helicity [1]: 23.3%
block of the increase of FP / activity in the biochemical 5HB assay [2]: reasonable activity
helicity [3]: 23.3%

Cc1cn2nc([C@@H]3CCCCN3C(=O)c3cc(Cl)ccc3NS(C)(=O)=O)cc2nc1N1CC[C@H](N)C1 [GS-5806]
EC50 [4]: 0.4 nM

Ac-YDPLVFPSDEFDASISQVNEKINQSLAFIRKSDEL-NH2 (N-terminus and C-terminus assumed) [Peptide T108]
EC50 [5]: 1480 nM

CC[C@H](C)[C@@H]1NC(=O)[C@H](Cc2ccccc2)NC(=O)[C@@](C)(NC(=O)[C@H](CC(C)C)NC(=O)[C@H](CO)NC(=O)[C@]2(C)CCCC=CCCC[C@@](C)(NC(=O)[C@H](CCC(=O)O)NC(C)=O)C(=O)N[C@@H]([C@@H](C)CC)C(=O)N[C@@H](CC(N)=O)C(=O)N2)CCCC=CCCC[C@@](C)(C(=O)N[C@@H](CO)C(=O)N[C@@H](CC(=O)O)C(=O)N[C@@H](CCC(=O)O)C(=O)N[C@@H](CC(C)C)C(=O)N[C@@H](CC(C)C)C(=O)N[C@@H](Cc2c[nH]cn2)C(=O)N[C@@H](CC(N)=O)C(=O)N[C@H](C(N)=O)C(C)C)NC(=O)[C@H](CCCNC(=N)N)NC1=O [Peptide 4ca] (Ac-E[R5]IN[S5]SL[S5]FIR[S5]SDELLHNV-NH2; staple 2-5, 8-12)
% helicity [1]: >100%
half-life at 2.9 µM [6]: 180 h
half-life at 2.9 µM [7]: 38 h
histological changes in the lung parenchyma, mock versus peptide inoculated animals (toxicity) [8]: No histological changes were noticed
interstitial pneumonia after infection by RSV, lung histology [8]: no interstitial pneumonia was observed

CC[C@H](C)[C@@H]1NC(=O)[C@H](Cc2ccccc2)NC(=O)[C@@](C)(NC(=O)[C@H](CC(C)C)NC(=O)[C@H](CO)NC(=O)[C@H](CCC(N)=O)NC(=O)[C@H](CCC(=O)O)NC(C)=O)CCCC=CCCC[C@@](C)(C(=O)N[C@@H](CO)C(=O)N[C@@H](CC(=O)O)C(=O)N[C@@H](CCC(=O)O)C(=O)N[C@@H](CC(C)C)C(=O)N[C@@H](CC(C)C)C(=O)N[C@@H](Cc2c[nH]cn2)C(=O)N[C@@H](CC(N)=O)C(=O)N[C@H](C(N)=O)C(C)C)NC(=O)[C@H](CCCNC(=N)N)NC1=O [Peptide 3a, EQSL X504 FIR X508 SDELLHNV, reference compound] (Ac-EQSL[S5]FIR[S5]SDELLHNV-NH2; staple 5-9)
% helicity [1]: 33.9%
block of the increase of FP / activity in the biochemical 5HB assay [2]: reasonable activity
EC50 ([9]; HEp-2 cells, 0.2 MOI RSV-mCherry, 48 h): > 25 µM
inhibitory activity in HEp-2 cells ([9]; RSV-mCherry): inactive

CC[C@H](C)[C@H](NC(=O)[C@H](Cc1ccccc1)NC(=O)[C@]1(C)CCCC=CCCC[C@](C)(NC(=O)[C@@H](NC(=O)[C@H](CCCCN)NC(=O)[C@H](CCC(=O)O)NC(C)=O)[C@@H](C)CC)C(=O)N[C@@H](CCC(N)=O)C(=O)N[C@@H](CO)C(=O)N[C@@H](CC(C)C)C(=O)N1)C(=O)N[C@@H](CCCNC(=N)N)C(=O)N[C@]1(C)CCCCCCC=CCCC[C@@](C)(C(=O)N[C@H](C(N)=O)C(C)C)NC(=O)[C@H](Cc2c[nH]cn2)NC(=O)[C@H](CC(C)C)NC(=O)[C@H](CC(C)C)NC(=O)[C@H](CCC(=O)O)NC(=O)[C@H](CC(=O)O)NC(=O)[C@H](CO)NC1=O [Peptide 4bf, EKI X500 QSL X504 FIR 8508 SDELLH X515V, reference compound] (Ac-EKI[S5]QSL[S5]FIR[R8]SDELLH[S5]V-NH2; staple 4-8, 12-19 (inferred))
% helicity [1]: >100%
inhibitory activity in cellular viral fusion assay [10]: inactive
